How the values were obtained:
[1] = target: CYP2D6 (Homo sapiens, UniProt P10635); experiment: Inhibitory activity on CYP2D6, human recombinant CYPs; assay type: in vitro ADME; details: human recombinant CYP2D6, substrate ethylene glycol ester of luciferin-6'-methyl ether; read-out: CYP 2D6 inhibition, IC50 value
Description: The purpose of this pharmacokinetic study was to investigate the inhibitory effects of test compounds on the specific metabolic activity of human CYP isozymes using human recombinant CYPs in vitro. […] The specific substrate and positive control is ethylene glycol ester of luciferin-6′-methyl ether and quinidine, respectively. The substrate for the CYP isozyme was incubated with human recombinant CYPs in the presence or absence of the test compounds and the metabolic activity of the CYP isozyme was determined. The reaction mixture was preincubated at 37° C. without NADPH generating system. The reaction was started by the addition of NADPH generating system, and then terminated by the addition of acetonitrile. The activities of the human CYP isozymes were measured by fluorescence signal (CYP2D6) of reaction mixture.

[2] = test system: scopolamine-treated mice; experiment: Object recognition test, 3 h inter-trial interval, scopolamine-induced episodic memory deficit

Chain of CYP2D6 (P10635 whole entry): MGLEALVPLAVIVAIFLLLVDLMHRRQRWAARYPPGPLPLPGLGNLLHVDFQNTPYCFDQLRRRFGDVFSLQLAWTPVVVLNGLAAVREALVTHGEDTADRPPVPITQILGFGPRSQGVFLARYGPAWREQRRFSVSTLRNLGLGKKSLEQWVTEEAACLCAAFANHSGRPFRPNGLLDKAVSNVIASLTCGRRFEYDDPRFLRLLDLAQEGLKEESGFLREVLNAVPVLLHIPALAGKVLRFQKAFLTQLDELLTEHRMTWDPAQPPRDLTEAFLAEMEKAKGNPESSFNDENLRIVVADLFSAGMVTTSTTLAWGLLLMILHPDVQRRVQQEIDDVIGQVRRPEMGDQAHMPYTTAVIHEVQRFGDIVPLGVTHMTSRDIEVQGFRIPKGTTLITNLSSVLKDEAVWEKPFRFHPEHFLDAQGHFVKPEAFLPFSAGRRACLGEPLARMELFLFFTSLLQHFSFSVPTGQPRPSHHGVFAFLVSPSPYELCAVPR

SMILES | melting point | IC50 [1] [µM] | effect on episodic memory deficits induced by scopolamine ([2]; 3 mg/kg oral) | MED, prevention of episodic memory deficits ([2]; scopolamine-treated mice) [mg/kg] | recognition index (RI) ([2]; scopolamine 1 mg/kg 30 minutes before acquisition, 0 mg/kg test compound, 3 h interval) [%]
Cn1c(N2CCOC(c3nc(-c4ccccc4)no3)C2)nc(-c2ccncn2)cc1=O (stereo not drawn) [Compound 1, 1-Methyl-2-[2-(3-phenyl-[1,2,4]oxadiazol-5-yl)-morpholin-4-yl]-1H-[4,4′]bipyrimidinyl-6-one] | – | > 50 | – | – | –
Cn1c(N2CCOC(c3noc(-c4ccccc4)n3)C2)nc(-c2ccncn2)cc1=O (stereo not drawn) [Compound 2, 1-Methyl-2-[2-(5-phenyl-[1,2,4]oxadiazol-3-yl)-morpholin-4-yl]-1H-[4,4′]bipyrimidinyl-6-one] | – | > 25 | – | – | –
CN1[C@@H]2C[C@@H](OC(=O)[C@H](CO)c3ccccc3)C[C@H]1[C@@H]1O[C@@H]12 [scopolamine, reference compound] | – | – | – | – | 49.9

Second part, led by results:

melting point | IC50 [1] [µM] | SMILES | effect on episodic memory deficits induced by scopolamine ([2]; 3 mg/kg oral) | MED, prevention of episodic memory deficits ([2]; scopolamine-treated mice) [mg/kg] | recognition index (RI) ([2]; scopolamine 1 mg/kg 30 minutes before acquisition, 0 mg/kg test compound, 3 h interval) [%]
179.8 °C (dec.) | > 50 | Cn1ccnc1-c1ccc(C2CN(c3nc(-c4ccncn4)cc(=O)n3C)CCO2)cc1 (stereo not drawn) [Compound 4, 1-Methyl-2-{2-[4-(1-methyl-1H-imidazol-2-yl)-phenyl]-morpholin-4-yl}-1H-[4,4′]bipyrimidinyl-6-one] | – | – | –
191 °C | > 50 | Cc1nc(-c2ccc([C@H]3CN(c4nc(-c5ccncn5)cc(=O)n4C)CCO3)cc2)no1 [Compound of the present invention] | ineffective | 10 | –
